Article PMC3435281 (PLoS ONE, 2012)
“Also recorded” adds a separate entry of the source.

Tests used:
[1] = system: human 101L-hepatoma cells; experiment: Duration of DRE-luciferase activation; type: cell-based; details: for luciferase activity: 100 nM
[2] = system: naïve T-cells with allogeneic BALB/C pDCs; experiment: pDC/T cell coculture, qPCR of IDO and FoxP3; type: cell-based, mouse; details: 5 days, SU5416 500 nM, TCDD 10 nM
From the text: (§1) An important role for the AHR in the immune system, and specifically T-cell differentiation, has been recognized and continues to be characterized in the literature, [7]. Some ligands of the AHR have the ability to enhance Treg differentiation from naïve T-cells (TCDD, kynurenine), while others direct differentiation towards Th17 effector cells (FICZ). […] IDO has long been known to play a role in Treg generation, and may be central to the mechanism of Dendritic Cell (DC)-directed Treg generation. […] As described in the Methods, naïve T-cells were sorted using magnetic bead separation, and placed in culture for 5 days with allogeneic pDCs separated from BALB/C mice. […] After 5 days, cells were collected and mRNA harvested for qPCR analysis of IDO and FoxP3. […] Naïve T cells were placed in culture with IL-6 and TGF-β, and harvested after 3 days of culture.
(§2) A. Spleens were harvested from mice and processed in the standard fashion. […] Same assay as A, but mRNA for CYP1B1 and IDO were measured. C.
Naive CD4^+CD25^− T cells were isolated from WT and AHR-null mice and cocultured with BALB/cJ pDCs isolated using the Miltenyi Mouse pDC Isolation Kit (Miltenyi Biotec) at a ratio of 20∶1 or 10∶1 as previously described (13). […] On day 5, cells were harvested and subjected to qPCR analysis.

C57BL/6J splenocytes = experiment: CYP1A1, CYP1B1 and IDO mRNA in C57BL/6J splenocytes; type: cell-based, mouse; details: 4 hours
From the text: as §1, §2

[3] = known value; cited from earlier work
[4] = system: AHR^fxneo/fxneo and AHR^fxneo/+ pups; experiment: In utero exposure, closure of ductus venosus (DV); type: in vivo, mouse; details: dams 110 mg/kg i.p. at E18.5, examined at 4 weeks
Experimental: We have previously shown that genetically altered mice that express only 10% of the AHR display a patent ductus venosus (DV) in the liver in nearly all cases. We additionally identified that in utero activation of the receptor in the hypomorphs with TCDD successfully closed the DV [5]. […] At 4 weeks of age, the pups were sacrificed, and DV status was examined by hepatic perfusion with trypan blue.
Timed mating of female AHR^fxneo/+ mice to male AHR^fxneo/fxneo mice was performed. […] When the pups were 4 weeks of age, the status of the DV was determined by hepatic perfusion with Trypan Blue as previously described. Briefly, each mouse was anesthetized and its liver was flushed with PBS through the cannulated portal vein. […] Trypan blue was injected through the portal vein until the liver visibly turned blue (in the case of a closed DV) or until the dye was seen exiting the IVC without perfusing the liver (when the DV is open).

murine AHR^d = experiment: EROD activity in AHR^d-15 cells (rat hepatoma BP8 stably transfected with AHR^d); details: 5L versus AHR^d-15 cells, 40 hours
From the text: The 100 “hit compounds” from the primary screen were subsequently screened for their capacity to activate the low-affinity murine AHR^d receptor isoform using the activity of the endogenous Cyp1a1 gene as a readout. To this end, we established a hepatoma cell line that expresses the AHR^d receptor isoform derived from the DBA/2J mouse. An AHR^d-expressing cell line was generated by stably transfecting the AHR^d cDNA into the rat hepatoma AHR-deficient cell line, BP8 [15]. After stable selection with G418, a subclone (AHR^d-15) was analyzed for receptor expression and function. […] To confirm that the AHR^d-15 clone expressed a functional low affinity AHR^d isoform, we examined the receptor-mediated response to the prototype agonists, TCDD and β-naphthoflavone (BNF).
To test the ability of the 100 AHR inducers to activate the AHR^d-15 cells, they were treated with each of the compounds at the dose of 1 µM, for 36 hours in 96-well plates.
Figure 3 In Vitro dose response curves. A. Rat hepatoma cell lines bearing the murine AHR^d (AHR^d-15) or the rat AHR^b (5L) were incubated with increasing doses of TCDD in 96-well plates. After 40 hours, EROD activity was performed from whole cell lysate. (n = 3). […] (n = 3). C. Same assay as in A, with increasing doses of BNF. (n = 2). […] Following 48 hours, hepatic microsomal proteins were isolated and used for the assessment of EROD activity. Animals were treated in groups of 4. Error bars: S.D.
The open reading frame of the AHR^d gene (PL2047) was amplified by PCR using oligos OL5127 (5′-[…]-3′) and OL5128 (5′-[…]-3′). The product was ligated into the pTARGET™ mammalian expression vector (Promega, Madison, WI). The resulting plasmid was transfected into the AHR-deficient cell line, BP8 [15], using Effectene transfection reagent (Qiagen Inc., Valencia, CA). Stable integrants were selected with 6 mg/ml of G418 for 2 weeks, beginning at 48-hours post-transfection. Clones derived from single cells were screened for their response to nanomolar doses of dioxin or micromolar doses of BNF, as measured by ethoxyresorufin O-deethylase (EROD) activity. […] The validated cell line used in these studies was designated line AHR^d-15.
High-throughput analysis of EROD activity was assayed by adapting a protocol that was described elsewhere, [63]. Briefly, cells were seeded into 96-well plates at ∼ 60% density and treated with the test compounds for 36 hours. The cells were washed with PBS and lysed with 30 µL water and a cycle of freeze-thaw. To each well, 150 µL of 50 mM Hepes buffer containing 26.7 µM dicumarol and 13.3 µM ethoxyresorufin were added. The samples were incubated at 30°C for 20 minutes, and 50 µL of 0.5 mM β-NADPH were added to initiate the reaction. Fluorescence of the resorufin product was detected using the 544 nm excitation and 590 nm emission wavelength filter set.

Structure (SMILES) | duration of DRE-binding ([1]; 1 nM, 4 to 96 hours) | FoxP3 mRNA [2] | IDO mRNA [2] | induction of CYP1A1 and CYP1B1 mRNA (C57BL/6J splenocytes; titrating doses) | induction of IDO mRNA (C57BL/6J splenocytes; titrating doses) | CYP1A1 mRNA induction (C57BL/6J splenocytes; wild-type cells, SU5416 500 nM) | luciferase activity as percent of TCDD response (1 nM) [1] [%] | luciferase activity ([1]; 4 hours) | luciferase activity ([1]; 24 hours) | plasma half-life [3] [min] | closed DV, percent of pups ([4]; AHR^fxneo/+ pups) [%] | closed DV, percent of pups ([4]; AHR^fxneo/fxneo pups) [%] | cytochrome P450 induction (EROD), comparison of the two cell lines (murine AHR^d)
Clc1cc2c(cc1Cl)Oc1cc(Cl)c(Cl)cc1O2 [TCDD, 2,3,7,8-tetrachlorodibenzo-p-dioxin] | long duration DRE-binding | upregulation was also seen | upregulation was also seen | – | – | – | – | – | – | – | – | – | –
Cc1cc(C)c(C=C2C(=O)Nc3ccccc32)[nH]1 [SU5416, 3-(3,5-dimethyl-1H-pyrrol-2-ylmethylene)-1,3-dihydro-indole-2-one] | – | generated; also recorded: to a greater extent than TCDD | generated; also recorded: to a greater extent than TCDD | dramatically induced | induced significant amounts of IDO mRNA | induced CYP1A1 in wild-type | ≤ 20 | has activity | no longer causes luciferase activity | 30 | 100 | 59 | equal potency
